Data published in the supplement of paper PMC10307832.

Key:
Experiment in all cases: relative viability (nuclei count vs DMSO), 5 days (fraction); higher = more cells survive
[1] = compound: NC(=O)[C@@H](CCC(F)(F)F)N(Cc1ccc(-c2ncon2)cc1F)S(=O)(=O)c1ccc(Cl)cc1 [Avagacestat] + COc1cc2c(Oc3ccc(NC(=O)C4(C(=O)Nc5ccc(F)cc5)CC4)cc3F)ccnc2cc1OCCCN1CCOCC1 [Foretinib] (partner 0.25 µM)
How it was run: (§1)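 Nuclei were stained with Hoechst during a one-step fixation (final 0.05% Triton X-100, 1% formaldehyde, 1 ug/ml Hoechst) carried out 5 days after dosing, then counted on 4× images. The cells, lung cancer lines in 1536-well plates, had been dosed by pin tool the day after seeding with one drug alone or a fixed anchor-drug dose plus five library-drug doses (not always all listed) in √10 steps. Relative viability is the nuclei count in treated wells divided by that in vehicle wells, and each value is the median of duplicate plates.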

[2] = compound: NC(=O)[C@@H](CCC(F)(F)F)N(Cc1ccc(-c2ncon2)cc1F)S(=O)(=O)c1ccc(Cl)cc1 [Avagacestat] + NC(=O)Nc1cc(-c2cccc(F)c2)sc1C(=O)N[C@H]1CCCNC1 [AZD7762] (partner 0.2 µM)
How it was run: as §1

[3] = compound: NC(=O)[C@@H](CCC(F)(F)F)N(Cc1ccc(-c2ncon2)cc1F)S(=O)(=O)c1ccc(Cl)cc1 [Avagacestat] + O=C(CCCCCCC(=O)Nc1ccccc1)NO [Vorinostat] (partner 1 µM)
How it was run: as §1

[4] = compound: NC(=O)[C@@H](CCC(F)(F)F)N(Cc1ccc(-c2ncon2)cc1F)S(=O)(=O)c1ccc(Cl)cc1 [Avagacestat] + CS(=O)(=O)N1CCN(Cc2cc3nc(-c4cccc5[nH]ncc45)nc(N4CCOCC4)c3s2)CC1 [Pictilisib] (partner 1 µM)
How it was run: as §1

| Cell Line | relative viability ([1]; first compound 0.08 µM) | relative viability ([1]; first compound 0.253 µM) | relative viability ([1]; first compound 0.8 µM) | relative viability ([1]; first compound 2.53 µM) | relative viability ([1]; first compound 8 µM) | relative viability ([2]; first compound 0.08 µM) | relative viability ([2]; first compound 0.253 µM) | relative viability ([2]; first compound 0.8 µM) | relative viability ([2]; first compound 2.53 µM) | relative viability ([2]; first compound 8 µM) | relative viability ([3]; first compound 0.08 µM) | relative viability ([3]; first compound 0.253 µM) | relative viability ([3]; first compound 0.8 µM) | relative viability ([3]; first compound 2.53 µM) | relative viability ([3]; first compound 8 µM) | relative viability ([4]; first compound 0.08 µM) | relative viability ([4]; first compound 0.253 µM) | relative viability ([4]; first compound 0.8 µM) | relative viability ([4]; first compound 2.53 µM) | relative viability ([4]; first compound 8 µM) |
| --- | --- | --- | --- | --- | --- | --- | --- | --- | --- | --- | --- | --- | --- | --- | --- | --- | --- | --- | --- | --- |
| NCI-H647 | 1.38 | 1.41 | 1.27 | 1.21 | 1.11 | 0.634 | 0.484 | 0.565 | 0.516 | 0.292 | 0.743 | 0.64 | 0.579 | 0.597 | 0.567 | 0.487 | 0.504 | 0.459 | 0.41 | 0.372 |
| NCI-H838 | 1.1 | 1.35 | 1.07 | 1.01 | 0.944 | 0.988 | 0.971 | 0.997 | 0.857 | 0.861 | 0.737 | 0.769 | 0.788 | 0.672 | 0.705 | 0.504 | 0.405 | 0.568 | 0.411 | 0.319 |
| NCI-H727 | 0.947 | 0.932 | 0.803 | 0.783 | 0.881 | 0.678 | 0.651 | 0.78 | 0.651 | 0.784 | 1.27 | 1.19 | 1.21 | 1.18 | 1.19 | 0.537 | 0.356 | 0.512 | 0.434 | 0.603 |
| 201T | 1.18 | 1.45 | 1.06 | 0.944 | 1.1 | 0.65 | 0.712 | 0.607 | 0.56 | 0.587 | 1.01 | 1.03 | 0.925 | 0.857 | 0.86 | 0.737 | 0.7 | 0.664 | 0.691 | 0.661 |
| PC-3 [JPC-3] | 1.19 | 1.09 | 1.15 | 1.02 | 1.01 | 0.983 | 0.972 | 1.19 | 0.842 | 0.775 | 0.944 | 0.87 | 1.33 | 0.857 | 0.949 | 0.806 | 0.903 | 0.794 | 0.772 | 0.72 |
| HCC-366 | 1.01 | 1.05 | 0.944 | 1.01 | 1.04 | 0.268 | 0.272 | 0.328 | 0.235 | 0.176 | 0.472 | 0.426 | 0.437 | 0.31 | 0.385 | 0.137 | 0.36 | 0.0944 | 0.082 | 0.132 |
| NCI-H1355 | 1.11 | 1.24 | 0.961 | 0.846 | 0.785 | 0.98 | 0.777 | 0.809 | 0.654 | 0.699 | 0.702 | 0.637 | 0.628 | 0.527 | 0.542 | 0.442 | 0.423 | 0.421 | 0.385 | 0.418 |
| RERF-LC-KJ | 0.987 | 1.07 | 0.993 | 0.859 | 0.842 | 1.02 | 1.14 | 1.24 | 0.929 | 0.751 | 0.724 | 0.64 | 0.801 | 0.685 | 0.601 | 0.526 | 0.599 | 0.549 | 0.464 | 0.617 |
| LK-2 | 1.72 | 1.7 | 1.07 | 1.07 | 0.93 | 0.408 | 0.384 | 0.41 | 0.4 | 0.291 | 0.196 | 0.353 | 0.265 | – | 0.22 | 0.653 | 0.76 | 0.429 | 0.473 | 0.541 |
| NCI-H1944 | 0.895 | 1.06 | 0.795 | 0.644 | 0.779 | 0.455 | 0.603 | 0.571 | 0.454 | 0.719 | 0.716 | 0.635 | 0.497 | 0.554 | 0.54 | 0.349 | 0.374 | 0.357 | 0.32 | 0.33 |
| HCC-827 | 1.08 | 1.12 | 1.15 | 1 | 1.03 | 0.193 | 0.188 | 0.216 | 0.161 | 0.188 | 0.75 | 0.849 | 0.855 | 0.946 | 0.832 | 1.13 | 1.08 | 0.797 | 0.941 | 0.897 |
| NCI-H3122 | 0.945 | 1 | 0.992 | 0.964 | 0.991 | 1.09 | 1.11 | 0.997 | 0.908 | 0.964 | 1.07 | 1.4 | 1.01 | 1.02 | 0.918 | 0.723 | 0.751 | 0.748 | 0.715 | 0.607 |
| EMC-BAC-2 | 1.06 | 1.09 | 1.06 | 0.904 | 0.968 | 1.23 | 1.33 | 1.28 | 0.976 | 1.21 | 0.662 | 0.581 | 0.803 | 0.535 | 0.51 | 0.567 | 0.554 | 0.564 | 0.489 | 0.517 |
| NCI-H1651 | 0.899 | 0.884 | 0.895 | 0.847 | 0.596 | 0.531 | 0.538 | 0.561 | 0.441 | 0.36 | 0.583 | 0.566 | 0.681 | 0.52 | 0.567 | 0.566 | 0.576 | 0.711 | 0.585 | 0.368 |
| NCI-H650 | 1.05 | 1.08 | 1.11 | 1.08 | 1.11 | 1.06 | 0.963 | 1.19 | 1.09 | 0.822 | 0.439 | 0.537 | 0.56 | 0.455 | 0.435 | 0.768 | 0.989 | 1.03 | 1.07 | 0.82 |
| LOU-NH91 | 0.925 | 0.916 | 0.974 | 0.886 | 0.893 | 0.828 | 0.838 | 0.864 | 0.673 | 0.736 | 1 | 0.878 | 1.03 | 0.798 | 0.885 | 0.491 | 0.475 | 0.559 | 0.515 | 0.498 |
